Measurements from US20080039629A1, “Benzothniazole compositions and their use as ubiquition ligation inhibitors” (RIGEL PHARMACEUTICALS, INC., priority 2003, published 2008).

Molecular target: T1, E1 and His-E2 Ubch10 (UBC10) (Homo sapiens, UniProt P22314)
T1 construct: host or cells: E. coli (His-Ubch10); Sf9 insect cells (E1)
T1 sequence (P22314 1-1058): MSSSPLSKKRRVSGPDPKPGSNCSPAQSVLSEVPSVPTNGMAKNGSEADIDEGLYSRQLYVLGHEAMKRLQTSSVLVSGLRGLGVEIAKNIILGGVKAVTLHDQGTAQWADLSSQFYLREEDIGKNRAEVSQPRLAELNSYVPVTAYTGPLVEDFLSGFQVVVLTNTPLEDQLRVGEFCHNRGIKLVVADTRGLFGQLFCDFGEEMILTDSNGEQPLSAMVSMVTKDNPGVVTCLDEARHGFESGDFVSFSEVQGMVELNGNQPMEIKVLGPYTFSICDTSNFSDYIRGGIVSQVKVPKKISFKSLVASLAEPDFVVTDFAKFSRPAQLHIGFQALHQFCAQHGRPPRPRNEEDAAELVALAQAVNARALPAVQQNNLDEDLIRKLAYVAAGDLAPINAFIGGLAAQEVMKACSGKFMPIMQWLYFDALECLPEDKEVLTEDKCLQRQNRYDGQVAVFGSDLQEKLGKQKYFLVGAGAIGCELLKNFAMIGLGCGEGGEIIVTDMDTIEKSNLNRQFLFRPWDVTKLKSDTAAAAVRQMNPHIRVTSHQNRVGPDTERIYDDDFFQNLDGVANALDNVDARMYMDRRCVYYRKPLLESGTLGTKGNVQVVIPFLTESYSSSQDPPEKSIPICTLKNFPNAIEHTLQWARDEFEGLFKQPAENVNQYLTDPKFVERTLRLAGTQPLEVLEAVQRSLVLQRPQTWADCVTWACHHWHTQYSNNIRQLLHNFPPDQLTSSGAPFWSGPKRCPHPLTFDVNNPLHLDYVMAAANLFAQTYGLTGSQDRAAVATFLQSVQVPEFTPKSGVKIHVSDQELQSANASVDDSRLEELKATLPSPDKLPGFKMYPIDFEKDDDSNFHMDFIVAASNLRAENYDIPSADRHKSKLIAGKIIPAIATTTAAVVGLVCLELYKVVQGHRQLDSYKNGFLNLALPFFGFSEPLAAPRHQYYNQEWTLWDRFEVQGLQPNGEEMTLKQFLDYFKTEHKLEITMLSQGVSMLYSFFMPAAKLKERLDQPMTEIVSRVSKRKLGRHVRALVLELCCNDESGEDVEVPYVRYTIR
Experiment: ATP competitive assay, 200 μM ATP (high ATP)
Format: biochemical
Conditions: conclusion from UBC10 inhibition at 1 μM versus 200 μM ATP
Description: The attachment of a ubiquitin moiety to the E2 conjugating agent was assayed using Flag-ubiquitin that was purified from E. coli, E2 Ubch10 that was purified as a His-Ubch10 from E. coli, and E1 that was purified from Sf9 insect cells (Affiniti Research Products, Exeter, U.K.). The wells of a Nickel-substrate 96-well plate (Pierce Chemical) were blocked with 100 μl of 1% casein/phosphate buffered saline (PBS) for 1 hour at room temperature. The blocked Nickel-substrate plate was then washed three times with 200 μl of PBST (0.1% Tween-20 in PBS). […] The final reaction solution volume was fixed to 80 μl with Millipore-filtered water. To this was added the following: a ubiquitin agent inhibitor in 10 μl of DMSO, 10 μl of E1 and His-E2 Ubch10 in 20 mM Tris buffer, pH 7.5, and 5% glycerol so that there was 10 ng/well of E1 and 20 ng/well of His-E2 Ubch10. […]
After 1 hour, the wells were washed three times with 200 μl of PBST and the amount of E2-ubiquitin complex was measured. […] The luminescence of each well was then measured using a […] to calculate the amount of E2-ubiquitin complex. […]
The table below illustrates the ATP competitive inhibition properties of the pharmaceutical compositions of the invention comprising the compounds listed in the table using the ATP competitive assay described above. Inhibition was measured using IC50 values.

Row | Results | SMILES
1 | ATP competitve | COc1ccc2sc(NC(=O)c3ccc4c(c3)OCCO4)nc2c1 [Compound 14, N-(5-methoxy-1,3-benzothiazol-2-yl)-2,3-dihydro-1,4-benzodioxine-6-carboxamide]
2 | ATP competitve | COc1ccc2nc(NC(=O)c3ccc(C)cc3)sc2c1 [Compound 3, N-(6-methoxy-1,3-benzothiazoi-2-yl)-4-methylbenzamide]
